Where only a bound is given, the exact number is not on record here.

The target in this assay is Nonstructural protein 3 (Zika virus, UniProt A0A024AXB9). The experiment in a line: Functional biochemical assay to identify treatments for viral infectious disease that targets Zika NS2B-NS3 protease. Utilizing a direct enzyme activity measurement method, reading the fluorescence intensity is used to characterize the relative potency of inhibitors as IC50. On the set-up: species or system PRVABC59.
Nonstructural protein 3, sequence (A0A024AXB9 whole entry): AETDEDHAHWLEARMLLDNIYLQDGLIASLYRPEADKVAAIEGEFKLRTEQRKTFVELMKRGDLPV
For orientation: IC50 means the concentration that inhibits the measured activity by half. Lower therefore signals inhibition by little substance. For `CC(C)c1cc(-c2ccc3[nH]c(C(=O)O)cc3c2)cc(S(N)(=O)=O)c1`, the IC50 was > 99.5 µM. To `O=C1CCc2c(cc(Cl)cc2-c2ccc3[nH]c(C(=O)O)cc3c2)N1` belongs > 99.5 µM; to `O=C(O)c1cc2cc(-c3cc(Cl)cc4c3CCNC4=O)ccc2[nH]1`, > 99.5 µM; to `Cc1[nH]c2ccc(Cl)cc2c1Cc1ccc(-c2nnn[nH]2)cc1`, > 99.5 µM. The value for `O=C(O)c1cc(Cc2c[nH]c3ccc(Cl)cc23)cc(C2CC2)n1` was > 99.5 µM. As for `Cn1ncc2c(C(=O)Nc3ccc4c(c3)CNC4)cc(Br)cc21`, half-maximal inhibition (IC50) was put at 0.274 µM.

On to `CNC(=O)[C@H](Nc1cc(CNC(=O)OC(C)(C)C)cc(C(=O)O)c1)c1cc(Cl)cc(C2CC2)c1`, for which the IC50 is > 99.5 µM. Regarding `O=C(O)[C@H]1C[C@H](n2ccc(Cc3c[nH]c4ccc(Cl)cc34)n2)C1`, the IC50 was > 99.5 µM. Turning to `O=C(Nc1cccc([C@@H]2C[C@H]2C(=O)O)c1)c1cc(Cl)cc2[nH]ncc12`, the IC50 was > 99.5 µM. For `C=CC[C@H](Nc1cccc(C2(C(=O)O)CCC2)c1)c1cc(Cl)cc(NC(=O)OCc2ccccc2)c1`, half-maximal inhibition (IC50) was put at 33.8 µM.

Regarding `c1ccc2c(Cc3ccc(-c4nnn[nH]4)cc3)c[nH]c2c1`, the IC50 is > 99.5 µM. To `N#Cc1cc(-c2ccc3[nH]c(C(=O)O)cc3c2)cc(N2CCCC2)c1` belongs > 99.5 µM; to `O=C(O)c1ccc(Cc2c[nH]c3ccc(Cl)cc23)cc1`, > 99.5 µM; to `N#C[C@]1(Nc2cccc(-c3nn[nH]n3)c2)C(=O)Nc2ccc(Cl)cc21`, > 99.5 µM. For the compound `O=Cc1ccc(N2CCC(C(=O)Nc3cccc(Br)n3)CC2)cc1`, the IC50 amounted to 24.7 µM. To `O=Cc1ccc(N2CCC(C(=O)NCCc3ccc(O)c(O)c3)CC2)cc1` belongs 55.9 µM; to `C=CC[C@H](Nc1cncc(Cl)c1)c1cccc(-c2nn[nH]n2)c1`, > 99.5 µM. The value for `C=CC[C@H](Nc1cccc(Cl)c1)c1cccc(-c2nn[nH]n2)c1` was > 99.5 µM. The value for `O=C(O)CCCn1cnc(-c2cc(Cl)cc(NC(=O)OCc3ccccc3)c2)n1` was > 99.5 µM; that for `N#C[C@H](Nc1cncc(-c2nn[nH]n2)c1)c1cc(Cl)cc(NC(=O)OCc2ccccc2)c1` was 51.9 µM. As to `N#C[C@H](c1cc(Cl)cc(C2CC2)c1)N1c2cnccc2C[C@H]1C(=O)O`, the IC50 is > 99.5 µM.

Turning to `NCc1cc(CCc2cc(Cl)cc(NC(=O)OCc3ccccc3)c2)cc(C(=O)O)c1`, the IC50 is > 99.5 µM.

On to `Clc1cc([C@@H]2C[C@H]2c2cccc(-c3nn[nH]n3)c2)c2cn[nH]c2c1`, for which the IC50 is > 99.5 µM. The compound `O=C(Nc1cc(Cl)cc([C@H]2[C@H](CO)[C@@H]2c2cccc(-c3nn[nH]n3)c2)c1)OCc1ccccc1` showed an IC50 of 84.1 µM. To `O=C(O)c1cc2cc(-c3nccc(C(F)F)n3)ccc2[nH]1` belongs > 99.5 µM; to `N#C[C@H](Nc1ccc2c(c1)CNC2)c1cc(Cl)cc2[nH]ncc12`, 0.116 µM; to `NCc1cc(Cl)cc(-c2ccc3[nH]c(C(=O)O)cc3c2)c1`, > 99.5 µM.

Regarding `NC[C@@H]1CN(c2cc(-c3ccc(N)nc3)cc3c2COB3O)C(=O)O1`, the 50% inhibitory concentration (IC50) was > 99.5 µM.

Take `N#C[C@H](Nc1ccc(CCC(=O)O)cn1)c1cc(Cl)cc(C2CC2)c1`: the IC50 was > 99.5 µM. To `O=Cc1ccc(N2CCC(C(=O)NCc3cccc(-c4ccccc4)c3)CC2)cc1` belongs > 99.9 µM. As for `N#C[C@H](Nc1cccn(CC(=O)O)c1=O)c1cc(Cl)cc(C2CC2)c1`, the IC50 is > 99.5 µM. The value for `CNc1ncc(C(F)(F)F)cc1-c1ccc2[nH]c(C(=O)O)cc2c1` was > 99.5 µM; that for `O=C(Nc1cc(Cl)cc([C@H](Nc2cccc(-c3nn[nH]n3)c2)C(=O)NC2CCOCC2)c1)OCc1ccccc1` was > 99.5 µM. For the compound `O=C(O)c1cccc(CCc2cc(Cl)cc3[nH]ncc23)c1`, the IC50 is > 99.5 µM. To `O=Cc1ccc(N2CCC(C(=O)NCCN3CCc4ccccc43)CC2)cc1` belongs 25 µM. The value for `O=C(Nc1cc(Cl)cc(-c2cn(C3CCCC3)nc2C(=O)O)c1)OCc1ccccc1` was 95.2 µM; that for `NCc1cc(NC(=O)c2cc(Cl)cc(NC(=O)OCc3ccccc3)c2)cc([C@@H]2C[C@H]2C(=O)O)c1` was 5.66 µM.

`CNC(=O)[C@H](Nc1cc(CN)cc(C(=O)O)c1)c1cc(Cl)cc(C2CC2)c1` came in with an IC50 of 0.795 µM. In the case of `N#Cc1cc(CN)cc([C@H]2C[C@@H]2c2cc(Cl)cc(NC(=O)OCc3ccccc3)c2)c1`, the IC50 was > 99.5 µM. With `NCc1cc(CC(=O)O)cc(NC(=O)c2cc(Cl)cc(NC(=O)OCc3ccccc3)c2)c1`, half-maximal inhibition (IC50) required 7.96 µM. In the case of `NCCCOc1cc2c(c(-c3ccc(N)nc3)c1)CCB(O)O2`, the IC50 is > 99.5 µM.

For `CC(C)[C@H](N)P(=O)(Oc1ccc(F)cc1)Oc1ccc(F)cc1`, the IC50 is > 99.5 µM.

As to `C[C@@]1(c2cccc(CN)c2)C[C@H]1c1cc(Cl)cc(NC(=O)OCc2ccccc2)c1`, the IC50 turned out to be 5.57 µM. This lies in the single-digit micromolar range. Take `COc1cc(-c2cc(Cl)cc(NC(=O)OCc3ccccc3)c2)c(OC)cc1CC(=O)O`: 94.2 µM corresponded to half-maximal inhibition (IC50). The value for `Cc1c(C(=O)Nc2cccc(-c3nnn[nH]3)c2)cnn1-c1ccc(Cl)cc1` was > 99.5 µM; that for `OCC#C[C@H](Nc1ccc2c(c1)CNC2)c1cc(Cl)cc2[nH]ncc12` was 1.1 µM. Regarding `CNC(=O)[C@H](Nc1cc(Cl)cc(C2CC2)c1)c1ccc(-c2nn[nH]n2)cc1`, the IC50 is > 99.5 µM.

As for `CNC(=O)[C@H](Nc1cccc(C2(C(=O)O)CCC2)c1)c1cc(Cl)cc(C2CC2)c1`, the IC50 was > 99.5 µM.

Consider `Cc1ccc2cccc(NC(=O)C3CCN(c4ccc(C=O)cc4)CC3)c2n1`, for which the IC50 came to 30.3 µM.

For the compound `CNC(=O)c1cc(CN)cc([C@@H]2C[C@H]2c2cc(Cl)cc(NC(=O)OCc3ccccc3)c2)c1`, the IC50 was determined as 8.64 µM. `N#Cc1cc(Cl)cc(-c2ccc3[nH]c(C(=O)O)cc3c2)c1`: the IC50 was > 99.5 µM. Regarding `C[C@@]1(c2cc(Cl)cc(NC(=O)OCc3ccccc3)c2)C[C@H]1c1cccc(CN)c1`, the IC50 amounted to 19.5 µM. This lies in the double-digit micromolar range. On to `O=C(O)c1cc2cc(-c3cc(Cl)cc(C4CC4)c3)ccc2[nH]1`, for which inhibition was half-maximal at 32.9 µM (IC50). To `CNC(=O)[C@H](Nc1cncc(C(=O)O)c1)c1cc(Cl)cc(C2CC2)c1` belongs > 99.5 µM; to `C[C@](O)(Cc1cc(Cl)cc(NC(=O)OCc2ccccc2)c1)c1cccc(CN)c1`, > 99.5 µM. On to `CN(C)CCNC(=O)[C@H](Nc1cccc(-c2nn[nH]n2)c1)c1cc(Cl)cc(NC(=O)OCc2ccccc2)c1`, for which the half-inhibitory concentration (IC50) was > 99.5 µM. Take `O=Cc1ccc(N2CCC(C(=O)Nc3ncc(Br)cc3O)CC2)cc1`: inhibition was half-maximal at 54 µM (IC50). The value for `NC(=O)C1(N2CCCCC2)CCN(C(=O)C2CCN(c3ccc(C=O)cc3)CC2)CC1` was 57.5 µM; that for `CCc1cc(Br)cc2c(Cc3ccc(-c4nnn[nH]4)cc3)c[nH]c12` was 26.4 µM. Regarding `CNC(=O)[C@H](Nc1cc(CN)cc(C(=O)O)c1)c1cc(Cl)cc(NC(=O)OCc2ccccc2)c1`, the IC50 was found to be 1.16 µM. The value for `CC(C)[C@H](NC(=O)[C@@H]1CCCN1C(=O)OCc1ccccc1)P(=O)(Oc1ccc(F)cc1)Oc1ccc(F)cc1` was > 99.5 µM. As for `CC(C)[C@H](CC(=O)O)NC(=O)c1cc(Cl)cc(NC(=O)OCc2ccccc2)c1`, the half-inhibitory concentration (IC50) is > 99.5 µM. To `N#C[C@H](Nc1ccc(CC(=O)O)cn1)c1cc(Cl)cc(C2CC2)c1` belongs > 99.5 µM; to `CNC(=O)[C@H](Nc1cc(CN)cc(-c2nn[nH]n2)c1)c1cc(Cl)cc(C2CC2)c1`, 0.589 µM.

The record behind these values is ChEMBL document CHEMBL5604062, “ASAP - ZIKV NS2B-NS3 protease fluorescence dose response” (2024).
